Data: patent US4816490A, “Novel therapeutic use of a derivative of indane dione and the pharmaceutical compositions intended for this use” (priority 1987, dated 1989)

Key:
[1] = Maximal tolerated dose on chronic administration in the rat; conditions: in vivo
[2] = system: hyperlipidaemia / atheroma in Wistar rats on atheromatogenous regimen; test: Biochemical testings in rats on atheromatogenous (cholesterol-rich) diet, including atheroma risk ratios; assay type: in vivo, rat; conditions: 100 mg/kg; for Cholesterol in LDL, variation in comparison to controls-Diet: LDL (estimate)
Text: (§1) The method utilized for the test was that, slightly altered of Aubert D. Feraud J. C., Lacaze B., Pepino., Ponak E. et Podesta M. as described in Atherosclerosis, Vol. 20 (1974), p. 263-280 (Experimental Atherogenesis in the Wistar Rat).
(§2) Female rats of Wistar strain, free of specific pathogenic germs (EOPS) stemming from the breeding EVIC-CEBA
Mean body weight: 160-180 g at the start of the test
(§3) Diet: standard tablets UAE AO 3 enriched in cholesterol (0.5%) and in cholic acid (0.5).
15 animals per each batch and by cage in MACROLON (Safi) of 59 cm×38 cm, 5 cm filled with a litter of shavings of wood.
(§4) Diet of the animals: the animals were given the atheromatogenous regimen then while maintaining the same regimen, they were given for 4 days 250,000 IU/kg of vitamin D2 dissolved in olive oil (Sterogyl 15H). The compounds to be tested were given thereafter for 4 weeks immediately after the termination of the atheromatogenous regimen.
At the end of these studies the following tests were performed on all surviving animals.
Esterified blood cholesterol
Cholesterol in LDL (estimate)
The total score for each product was obtained by adding each individual scores and allowed the following classification
The protection against the atheromatogenous risk was evaluated using the following ratios: […]

[3] = Acute toxicity after single intraperitoneal administration; assay type: in vivo; conditions: mouse, in vivo, ip, calculated LD 50 (about)
Text: (§5) Male and female mice of Swiss strain weighing from 22 to 25 g of body weight were free of pathogen specific organisms (EOPS), stemming from breeding CERJ (53860 LE GENEST (France) and acclimated for at least 8 days in the animalry of the firm.
(§6) Except where stipulated to the contrary, in the tables giving the results, 10 animals of the same sex for each dose were housed in cages of MAKROLON (Safi) of 40 cm by 25 cm filled with shaving of wood. Standard feeding for rats and mice, tablets UAR and tap water ad libitum.
(§7) The compounds were administered without previous fasting either orally (gastric tubing using a metallic oesophageous sonde) at a rate of 0.5 ml or 1 ml per 20 g of body weight of an aqueous suspension of the test compound in a 3% solution of arabic gum, or intraperitoneally at a rate of 0.5 ml or 1 ml per 20 g of body weight of the test compound suspended in an isotonic saline solution containing 3% of arabic gum.
(§8) For 6 days after the single administration and then every day for 15 days.
(§9) When necessary, the mean lethal doses (LD 50) were calculated by the method of Behrens and Karber (BK) and Miller and Tainter (MT). The latter allowing to supply with, for the threshold of probability P=0.05 a limit of confidence for the LD 50. Further calculated were the LDo i.e. DMT=maximal doses always tolerated and the LD100 i.e. DMM=minimal doses always lethal.

[4] = system: female rats of Wistar strain; test: Tolerance, mortality and body weight in the rat atheroma study
Text: as §2, §4
The behavior and the changes in weight of the animals were surveyed every day as well as by weekly weighing.

[5] = system: atheroma / hyperlipidaemia in Wistar rats on atheromatogenous regimen; test: Overall hypolipaemiant and anti-atheromatous classification (summarized scores); assay type: in vivo, rat; conditions: 100 mg/kg
Text: as §1, §2, §3, §4

[6] = Acute toxicity after single oral administration; assay type: in vivo; conditions: mouse, in vivo, po
Text: as §5, §6, §7, §8, §9
The compound was administered in a single dose to batches of 10 male or female mice weighing […] at a rate of 1 ml per 20 g of body weight.

[7] = system: atheromatous deposits of the aorta, Wistar rats; test: Macroscopic examination of aorta atheroma in rats on atheromatogenous diet; assay type: in vivo, rat; conditions: 100 mg/kg
Text: as §1, §3
After the studies, all the animals were sacrificed by subtotal puncture of the blood in the abdominal aorta after anesthesia by intravenous sodium Pentobarbital. The hearts, livers, aortas on which the score of atheroma was determined were taken. For this purpose, the aortas were longitudinally cut, then spread to allow a whole insight of the endothelial coating from the aortic valves until the branching of the coeliac stem (lower portion of the thoracic aorta).
Aorta was from an anatomic point of view divided into two parts:
Zone 1: aortic valves-first intercostal arters
Zone 2: first intercostal arters and branching of the coeliac stem
The intensity of the atheromatous deposits was determined according to the following scores:
Score 1: Discrete (<1 mm) and few deposit
Score 2: Numerous and discrete deposits
Score 3: Numerous and marked deposits (<1 mm)
Score 4: Very marked deposits or very numerous deposits but letting some uninfiltrated areas
Score 5: Deposits on the whole epithelium
Two parameters were considered:
the intensity of the observed damages determined according to the previously-given scores.

[8] = system: atheromatous damages of the aorta, Wistar rats; test: Histopathological examination of atheroma in rats on atheromatogenous diet; assay type: in vivo, rat; conditions: 100 mg/kg
Text: as §1, §3
The aorta, livers, hearts of the rats after sacrifice were […] with an aqueous solution of Bouin's Reagent and embedded in paraffin after washing with alcohols at increasing concentration and with toluene. The hearts were kept in blocks of paraffin for a further examination when necessary. The livers were stained using the technique of Hematein-eosin and the aorta were stained using the techniques of
orcein-light green to evidence the structural damages of the elastic strips
periodic acid, then Schiff's Reagent to locate the deposits of mucopolysaccharids […]
The intensity of the observed damages and the degree of atheromatosis were determined using one of the following scores: […]
The histopathological examinations provided individual scores which were analyzed, then reported for each batch. Three parameters were distinctly determined: […]
2. The intensity of the atheromatous damages found, determined by the previously-given scores.
3. The number of the observed atheromatous damage calculated on the basis of a batch of 15 animals each.

[9] = system: hyperlipidaemia induced by TRITON WR 1339; test: Hyperlipidaemia induced by TRITON WR 1339 in the Wistar rat; assay type: in vivo; conditions: for Dose dependence of hypolipaemiant activity: 250 and 500 mg/kg
Protocol: Feeding by standard Regimen UAR A04
Drinking water ad libitum
6 animals per dose in a cage in MAKROLON of 60×40 cm filled with shavings of wood.
10 mn after: administration of the test compound
6 hours after: 1st sampling of the blood at the retro-orbital sinus
Total cholesterol by the colorimetric method of RICHMOND
Cholesterol in HDL by the colorimetric method of RICHMOND after precipitation by CONCANAVALIN A
Cholesterol in LDL by the colorimetric method of RICHMOND after precipitation by CONCANAVALIN A
Total lipids by the Zollner's sulphophosphovanillic method
Triglycerids by the BUCOLO's enzymatic method.

## CCOC(=O)C(C)(C)Oc1ccc(Cl)cc1 [Clofibrate]
[1]
  MTD: ~100 mg/kg
[2]
  Cholesterol in LDL / Cholesterol in HDL ratio (risk of atheroma): 5.35
  Cholesterol in LDL / Cholesterol in HDL, % in comparison with Controls-Diet: -78.13%
  Total Blood Cholesterol / Cholesterol in HDL ratio (risk of atheroma): 6.69
  Total Blood Cholesterol / Cholesterol in HDL, % in comparison with Controls-Diet: -74.91%
[2]; 4 weeks
  Cholesterol in HDL, variation in comparison to controls-Diet: +104.17%
  Esterified cholesterol, variation in comparison to controls-Diet: -55.00%
  Total Blood lipids, variation in comparison to controls-Diet: -35.43%
  Total blood cholesterol, variation in comparison to controls-Diet: -48.75%
  Triglycerids, variation in comparison to controls-Diet: -24.14%
  Cholesterol in LDL, variation in comparison to controls-Diet: -55.37%
[3]
  LD50: ~1800 mg/kg
[4]; rat, in vivo
  Mortality: 4/15
[5]
  Classification of the anti-atheromatous action: Compound of the invention>Fenofibrate>Clofibrate
[6]
  LD50: 2500 mg/kg
[7]
  Macroscopical examination total score: 2.00
[7]; macroscopical
  Damaged animals, % of decrease in comparison with Controls-Diet: -18.18%
  Damaged animals, percentage: 81.82%
  Damaged animals, score in relation to Clofibrate: 1.00
  Intensity of the damages, % of decrease in comparison with Controls-Diet: -25.65%
  Intensity of the damages, score in relation to Clofibrate: 1.00
[8]
  Histological examination score: 2.00

## CC(C)OC(=O)C(C)(C)Oc1ccc(C(=O)c2ccc(Cl)cc2)cc1 [Fenclofibrate]
[2]
  Atheromatous risk total score: 0.23
  Cholesterol in LDL / Cholesterol in HDL, % in comparison with Controls-Diet: -12.35%
  Cholesterol in LDL / Cholesterol in HDL, score in comparison with Clofibrate: 0.16
  Total Blood Cholesterol / Cholesterol in HDL, % in comparison with Controls-Diet: -5.06%
  Total Blood Cholesterol / Cholesterol in HDL, score in comparison with Clofibrate (=1): 0.07
[2]; 4 weeks
  Cholesterol in HDL score (Clofibrate=1): 0.04
  Cholesterol in HDL, variation in comparison to controls-Diet: +4.17%
  Cholesterol in LDL score (Clofibrate=1): 0.16
  Esterified cholesterol score (Clofibrate=1): 0.40
  Esterified cholesterol, variation in comparison to controls-Diet: -22.08%
  Total Blood lipids score (Clofibrate=1): 0.29
  Total Blood lipids, variation in comparison to controls-Diet: -10.31%
  Total blood cholesterol score (Clofibrate=1): 0.02
  Total blood cholesterol, variation in comparison to controls-Diet: -1.09%
  Triglycerids, variation in comparison to controls-Diet: -25.86%
  Cholesterol in LDL, variation in comparison to controls-Diet: -8.69%
[2]; sum of individual scores, Clofibrate=1 each
  Biochemistry total score: 1.98
[4]; 100 mg/kg, 4 weeks, atheromatogenous regimen (batch No. 2: 2/15)
  Mortality: 3/15
[5]
  Classification of the anti-atheromatous action: Compound of the invention>Fenofibrate>Clofibrate
  Total Score (biochemistry, atheromatous risk, macroscopical, histological): 6.51
[7]
  Macroscopical examination total score: 2.17
[7]; macroscopical
  Damaged animals, % of decrease in comparison with Controls-Diet: -16.67%
  Damaged animals, percentage: 83.33%
  Damaged animals, score in relation to Clofibrate: 0.92
  Intensity of the damages, % of decrease in comparison with Controls-Diet: -31.97%
  Intensity of the damages, score in relation to Clofibrate: 1.25
[7]; macroscopical, scores 0 to 5
  Intensity of the damages, quotation: 1.83
[8]
  Histological examination score: 2.13

## CC(C)OC(=O)C(C)(C)Oc1ccc(C(=O)c2ccc(Cl)cc2)cc1 [Procetofene, reference compound]
[9]; 6 hours after TRITON WR 1339
  Dose dependence of hypolipaemiant activity: directly proportional to the doses
[9]; 24 hours after TRITON WR 1339
  Dose dependence of hypolipaemiant activity: inversely proportional to the dose
[9]; 6 hours after, 250 mg/kg oral
  Cholesterol HDL/LDL score vs 250 mg/kg Procetofene: 1.00
  Total Score vs 250 mg/kg Procetofene: 4.00
  Total cholesterol score vs 250 mg/kg Procetofene: 1.00
  Total lipids score vs 250 mg/kg Procetofene: 1.00
  Triglycerids score vs 250 mg/kg Procetofene: 1.00
[9]; 6 hours after, 500 mg/kg oral
  Cholesterol HDL/LDL score vs 250 mg/kg Procetofene: 1.53
  Total Score vs 250 mg/kg Procetofene: 5.12
  Total cholesterol score vs 250 mg/kg Procetofene: 1.65
  Total lipids score vs 250 mg/kg Procetofene: 0.65
  Triglycerids score vs 250 mg/kg Procetofene: 1.29
[9]; 24 hours after, 250 mg/kg oral
  Cholesterol HDL/LDL score vs 250 mg/kg Procetofene: 1.00
  Total Score vs 250 mg/kg Procetofene: 4.00
  Total cholesterol score vs 250 mg/kg Procetofene: 1.00
  Total lipids score vs 250 mg/kg Procetofene: 1.00
  Triglycerids score vs 250 mg/kg Procetofene: 1.00
[9]; 24 hours after, 500 mg/kg oral
  Cholesterol HDL/LDL score vs 250 mg/kg Procetofene: 0.30
  Total Score vs 250 mg/kg Procetofene: 3.33
  Total lipids score vs 250 mg/kg Procetofene: 0.85
  Triglycerids score vs 250 mg/kg Procetofene: 1.01
[9]; same doses (250 and 500 mg/kg)
  Antihyperlipaemiant activity, compound vs Procetofene: antihyperlipaemiant activity about equal
